Like-named read-outs stand apart in the source and are kept apart here.
Tests used:
[1] = Metabolite profiling and pharmacokinetics in plasma (targeted HPLC-MS2); format: in vivo, humans; details: for AUC0-24h / Cmax / T1/2 (elimination half-life) / Tmax / AUC(0-t) / half-life: human plasma, oral 60 mg 14C-EC, mean ± SEM n=8; for AUC(0-t): read-out: AUC0-24h; for half-life: read-out: T1/2 (elimination half-life) (converted); for Identification as human EC metabolite: human plasma and urine, radiolabeled tracer
Method: (§1) The study was a single-center, open-label, and non-randomized study with two distinct elements: a run-in phase to establish a more defined dietary background of dietary flavanols and procyanidins and the subsequent ^14C-EC ADME study (Fig. 1B). Participants (n = 12) were enrolled in the run-in phase (day –17 to day –4) and asked to supplement their daily diet for 14 days with a commercially available flavanol-containing cocoa-based drink (250 mg cocoa flavanols; 40 mg of EC). This was followed by a 4-day period (day –4 to 0) of a low-flavanol diet. One day (study day -1) prior to the initialization of the ^14C-EC ADME study, all eligible participants were accommodated under controlled conditions at a metabolic research facility (Covance Clinical Pharmacology Inc., Wisconsin) until completion of the study. Based on the compliance of the first part of the study, 8 participants were selected to participate in the ^14C-EC ADME study. During the ^14C-EC ADME study (Fig. 1B.), volunteers received a low-flavanol, standardized high-fiber diet, and were encouraged to maintain an adequate level of hydration (water ad libitum). Volunteers were asked to fast for 8 h before the initiation of the study and for at least 4 h after the intake of the ^14C-EC test drink (water ad libitum). Venous blood samples were taken using Vacutainer collection tubes, containing potassium EDTA at 0 h (just prior to ^14C-EC ingestion), and at 0.25, 0.5, 1, 1.5, 2, 2.5, 3, 4, 6, 8, 10, 12, 16, 24, 36, and 48 h after test drink consumption. Plasma was obtained by whole blood centrifugation at 2000 × g for 15 min at 5 °C, separated into aliquots and stored at −80 °C until analysis. All urine and feces from the time just prior to the consumption of the test drink were collected at different time intervals for radioactivity and metabolite profiling. Clinical parameters and laboratory evaluations of participants were assessed at screening, on study day –1, and after completing the study, as detailed in Supplementary Methods.
(§2) Samples were processed as described previously[18] and analyzed by HPLC-MS^2 in conjunction with an on-line HPLC-radioactivity monitor as described in SI Materials and Methods. Identification of metabolites involved comparing the retention time with authentic standards and MS^2 fragmentation patterns (Supplementary Methods). Quantification of metabolites in urine was based on HPLC radioactivity peak area (limit of quantification: 10^3 dpm). Due to the low levels of radioactivity, quantification in plasma was based on targeted HPLC-MS^2 using standard curves obtained with authentic standards (Supplementary Methods).
Data are expressed as mean values ± standard error, or as otherwise specified. Pharmacokinetic parameters were calculated using non-compartmental analysis with WinNonlin (Pharsight Corporation, Version 5.2).
5-20% acetonitrile in 0.1 % formic acid. Supplementary Table S2 provides details of HPLC retention times and the m/z values that were monitored.
Supplementary Table S2. Detection of (−)-epicatechin metabolites. HPLC retention times and selected reaction monitoring ions used for the HPLC-MS analysis of (−)-epicatechin metabolites in plasma. […]
Structurally related (-)-epicatechin metabolites in humans: assessment using de novo chemically synthesized authentic standards. Free Radic Biol Med 52, 1403- […]
3 Borges, G. et al. Bioavailability of multiple components following acute ingestion of a polyphenol-rich juice drink. Mol Nutr Food Res 54 Suppl 2, S268-277, […]
4 Stalmach, A. et al. Absorption, metabolism, and excretion of green tea flavan-3-ols in humans with an ileostomy. Mol Nutr Food Res 54, 323-334,

[2] = Metabolite profiling and quantification in urine (HPLC-MS2 with on-line radioactivity detector); format: in vivo, humans; details: human, oral 207 μmol 14C-EC, mean ± SEM n=8; for Metabolite present in urine, collection period 0–4 h / Metabolite present in urine, collection period 4–8 h / Metabolite present in urine, collection period 8–12 h / Metabolite present in urine, collection period 12–24 h / Metabolite present in urine, collection period 24–48 h: – = not detected
Method: as §1, §2
HPLC-MS identifications of radiolabeled [2-14C](−)-epicatechin metabolites in urine Urine was analyzed with radioactivity and mass spectrometry (MS) detection using a 250 mm x 4.6 mm i.d. 5 µm Luna Phenyl-Hexyl column (Phenomenex, Macclesfield, UK) […]
formic acid. Metabolite identification was performed by 1) co-chromatography of metabolites with reference compounds and a comparison of their MS fragmentation patterns 2, 2) by comparing m/z fragmentation patterns with earlier in-house observed […]
patterns to databases of metabolites reported in earlier polyphenol feeding studies5-7.
Supplementary Table S2, which also provides information on the MSI MI (Metabolite Standards Initiative – Metabolites Identification) level, a confidence level for identification where level 1 stands for fully elucidated (i.e., by comparison with a standard) and level 2 for a well characterized, but not yet fully structurally elucidated 8

| Compound | AUC0-24h [1] | Cmax [1] | T1/2 (elimination half-life) [1] | Tmax [1] | Metabolite present in urine, collection period 0–48 h [2] | Metabolite present in urine, collection period 4–8 h [2] | Metabolite present in urine, collection period 8–12 h [2] | Metabolite present in urine, collection period 12–24 h [2] | further results |
| --- | --- | --- | --- | --- | --- | --- | --- | --- | --- |
| COc1cc([C@H]2Oc3cc(O)cc(O[C@@H]4O[C@H](C(=O)O)[C@@H](O)[C@H](O)[C@H]4O)c3C[C@H]2O)ccc1O [3′-O-methyl(−)-epicatechin-5-O-β-D-glucuronide] | 0.025 ± 0.01 µM·h | 23 ± 5 nM | 1.3 ± 0.2 h | 0.8 ± 0.2 h |  |  |  |  | Relative amount (% of total) of individual SREM in plasma ([1]; human, 1 h post 14C-EC intake, Fig. 4A): < 3% |
| COc1cc([C@H]2Oc3cc(OS(=O)(=O)O)cc(O)c3C[C@H]2O)ccc1O [3′-O-Methyl-(−)-epicatechin-7-sulfate, 3′-O-methyl-(−)-epicatechin-7-sulfate] | 1.03 ± 0.26 µM·h | 159 ± 20 nM | 2.4 ± 0.2 h | 1.1 ± 0.1 h | 1.2 ± 0.3 μ mol | 0.3 ± 0.1 μ mol |  |  | Metabolite present in urine, collection period 0–4 h [2]: 0.9 ± 0.2 μ mol |
| O=C(O)CCC(O)Cc1ccc(O[C@@H]2O[C@H](C(=O)O)[C@@H](O)[C@H](O)[C@H]2O)c(O)c1 (some centres unmarked) [5-(3′-Hydroxyphenyl)-γ-hydroxyvaleric acid-4′-O-glucuronide] | 0.835 ± 0.355 µM·h | 54 ± 14 nM | 6.5 ± 0.8 h | 4.9 ± 1.3 h | 2.3 ± 0.7 μ mol | 1.3 ± 0.5 μ mol | 0.5 ± 0.3 μ mol | 0.5 ± 0.1 μ mol |  |
| O=C(O)[C@H]1O[C@@H](Oc2cc([C@H]3Oc4cc(O)cc(O)c4C[C@H]3O)ccc2O)[C@H](O)[C@@H](O)[C@@H]1O [(−)-Epicatechin-3′-O-glucuronide, (−)-epicatechin-3′-O-β-D-glucuronide] |  |  |  |  | 18.6 ± 2.5 μ mol | 5.7 ± 1.3 μ mol | 2.9 ± 0.8 μ mol | 2.0 ± 0.8 μ mol | Metabolite present in urine, collection period 0–4 h [2]: 8.0 ± 1.4 μ mol; Cmax ([1]; male): 359 ± 23 nM; AUC(0-t) ([1]; male): 1.62 ± 0.332 µM·h; half-life ([1]; male): 2 ± 1.1 h; Tmax ([1]; male, read-out: Tmax): 0.8 ± 0.1 h |
| 5-(Hydroxyphenyl)-γ-hydroxyvaleric acid-sulfate | 1.49 ± 0.475 µM·h | 56 ± 9 nM | 7.6 ± 3.5 h | 5.9 ± 0.6 h |  |  |  |  |  |
| O=S(=O)(O)Oc1cc([C@H]2Oc3cc(O)cc(O)c3C[C@H]2O)ccc1O [(−)-Epicatechin-3′-sulfate, (−)-epicatechin-3′-sulfate] |  |  |  |  | 7.7 ± 0.9 μ mol | 1.2 ± 0.4 μ mol | 0.3 ± 0.1 μ mol | 0.2 ± 0.2 μ mol | Metabolite present in urine, collection period 0–4 h [2]: 6.0 ± 0.7 μ mol; Cmax ([1]; male): 191 ± 17 nM; AUC(0-t) ([1]; male): 0.633 ± 0.135 µM·h; half-life ([1]; male): 2 ± 0.3 h; Tmax ([1]; male, read-out: Tmax): 1.1 ± 0.1 h |
| COc1cc([C@H]2Oc3cc(O[C@@H]4O[C@H](C(=O)O)[C@@H](O)[C@H](O)[C@H]4O)cc(O)c3C[C@H]2O)ccc1O [3′-O-methyl(−)-epicatechin-7-O-β-D-glucuronide] | 0.077 ± 0.031 µM·h | 39 ± 5 nM | 1.3 ± 0.3 h | 0.9 ± 0.1 h |  |  |  |  |  |
| O=C(O)[C@H]1O[C@@H](Oc2ccc([C@H]3Oc4cc(O)cc(O)c4C[C@H]3O)cc2O)[C@H](O)[C@@H](O)[C@@H]1O [(−)-epicatechin-4′-β-D-glucuronide, reference compound] |  |  |  |  |  |  |  |  | Identification as human EC metabolite [1]: could not be identified by us |
| O=S(=O)(O)Oc1ccc([C@H]2Oc3cc(O)cc(O)c3C[C@H]2O)cc1O [(−)-epicatechin-4′-sulfate, reference compound] |  |  |  |  |  |  |  |  | Identification as human EC metabolite [1]: could not be identified by us |
| O=C(O)CNC(=O)c1cccc(O)c1 [3′-Hydroxyhippuric acid] |  |  |  |  | 16.9 ± 5.8 μ mol | 1.6 ± 0.5 μ mol | 2.8 ± 0.7 μ mol | 7.0 ± 2.9 μ mol | Metabolite present in urine, collection period 24–48 h [2]: 5.5 ± 2.3 μ mol |
| O=C(O)[C@H]1O[C@@H](Oc2cc(O)c3c(c2)O[C@H](c2ccc(O)c(O)c2)[C@H](O)C3)[C@H](O)[C@@H](O)[C@@H]1O [(−)-Epicatechin-7-O-glucuronide, (−)-epicatechin-7-O-β-D-glucuronide] | 0.045 ± 0.014 µM·h | 22 ± 7 nM | 1.7 ± 0.3 h | 0.8 ± 0.1 h |  |  |  |  |  |
| O=C1CCC(Cc2cccc(OS(=O)(=O)O)c2)O1 (centres unmarked) [5-(Phenyl)-γ-valerolactone-3′-sulfate] |  |  |  |  | 4.7 ± 2.7 μ mol | 2.4 ± 1.1 μ mol | 1.2 ± 0.9 μ mol | 1.0 ± 0.8 μ mol | Metabolite present in urine, collection period 0–4 h [2]: 0.1 ± 0.1 μ mol |
| Hydroxyphenylacetic acid-sulfate |  |  |  |  | 2.9 ± 1.1 μ mol | 0.9 ± 0.5 μ mol | 0.8 ± 0.6 μ mol | 1.2 ± 0.4 μ mol |  |
| O=C1CCC(Cc2ccc(O)c(O[C@@H]3O[C@H](C(=O)O)[C@@H](O)[C@H](O)[C@H]3O)c2)O1 (some centres unmarked) [5-(4′-Hydroxyphenyl)-γ-valerolactone-3′-O-glucuronide] |  |  |  |  |  |  |  |  | Cmax ([1]; male): 125 ± 30 nM; AUC(0-t) ([1]; male): 1.91 ± 0.787 µM·h; half-life ([1]; male): 3.1 ± 0.6 h; Tmax ([1]; male, read-out: Tmax): 6.8 ± 0.8 h |
| O=C1CCC(Cc2ccc(O[C@@H]3O[C@H](C(=O)O)[C@@H](O)[C@H](O)[C@H]3O)c(O)c2)O1 (some centres unmarked) [5-(3′-Hydroxyphenyl)-γ-valerolactone-4′-O-glucuronide] | 1.33 ± 0.396 µM·h | 52 ± 9 nM | 4.4 ± 1.3 h | 6.1 ± 0.8 h |  |  |  |  |  |
| O=C(O)CNC(=O)c1ccccc1 [Hippuric acid] |  |  |  |  | 26.4 ± 7.1 μ mol | 7.2 ± 3.9 μ mol | 5.6 ± 2.6 μ mol | 7.1 ± 2.1 μ mol | Metabolite present in urine, collection period 0–4 h [2]: 0.6 ± 0.4 μ mol; Metabolite present in urine, collection period 24–48 h [2]: 5.9 ± 4.1 μ mol |
| O=S(=O)(O)Oc1cc(O)c2c(c1)O[C@H](c1ccc(O)c(O)c1)[C@H](O)C2 [(−)-Epicatechin-7-sulfate] | 0.043 ± 0.016 µM·h | 19 ± 3 nM | 2.2 ± 0.4 h | 1.1 ± 0.2 h |  |  |  |  |  |
| O=C(O)CCC(O)Cc1cccc(OS(=O)(=O)O)c1 (centres unmarked) [5-(Phenyl)-4-hydroxyvaleric acid-3′-sulfate] |  |  |  |  | 2.9 ± 1.6 μ mol | 1.9 ± 1.0 μ mol | 0.3 ± 0.2 μ mol | 0.7 ± 0.7 μ mol |  |
| 5-(Phenyl)-γ-valerolactone-O-sulfate-O-glucuronide | 1.02 ± 0.481 µM·h | 39 ± 9 nM | 6.4 ± 2.2 h | 5.5 ± 1.1 h |  |  |  |  |  |
